Test system: Sinapis arvensis
Assay: Weed action preemergence
Assay type: in vivo
Conditions: dose of 1 kg of active substance or less per hectare, visual assessment after 3 to 4 weeks vs untreated controls
Excerpt: Seeds of mono- and dicotyledonous weed plants are put into sandy loam soil in cardboard pots and covered with soil. The compounds according to the invention in the form of wettable powders or emulsion concentrates are then applied to the surface of the covering soil as an aqueous suspension or emulsion with a water application rate of 600 to 800 l/ha after conversion in a dose of 1 kg of active substance or less per hectare after conversion. After the treatment, the pots are placed in a greenhouse and kept under good growth conditions for the weeds. The visual assessment of the plants or emergence damage is carried out after the emergence of the test plants after a test period of 3 to 4 weeks in comparison with untreated controls. In this case, for example, the compounds of Example Nos. 5, 33 and 19 show an at least 80% action against Stellaria media, Lolium multiflorum and Amaranthus retroflexus. The compounds of Example Nos. 2 and 8 show an at least 90% action against Amaranthus retroflexus, Stellaria media and Setaria viridis. The compounds of Example Nos. 2 and 18 show a 100% action against Amaranthus retroflexus and Sinapis arvensis.

## CS(=O)(=O)c1ccc(C(=O)C2C(=O)CCCC2=O)c(Cl)c1COc1ccccc1 [Example 2, 2-(2-chloro-4-methylsulfonyl-3-phenoxymethylbenzoyl)cyclohexane-1,3-dione]
  action against Sinapis arvensis: 100%

Reference: US6376429B1, “Benzoylcyclohexanediones, process for their preparation and their use as herbicides and plant growth regulators” (Hoechst Schering AgrEvo GmbH, priority 1998, dated 2002)
